This note sets out measurements from publication PMC7307922 (Journal of Medicinal Chemistry, 2020).

≈ marks a conversion by molar mass, not a printed value. Where “and” joins values, the source holds several entries; their conditions need not be identical. Identical values can stand only once. Like-named read-outs stand apart in the source and are kept apart here.

In data set [1] the target is T1, hFFA3 (Homo sapiens, UniProt O14843).
T1 sequence (O14843 1-346): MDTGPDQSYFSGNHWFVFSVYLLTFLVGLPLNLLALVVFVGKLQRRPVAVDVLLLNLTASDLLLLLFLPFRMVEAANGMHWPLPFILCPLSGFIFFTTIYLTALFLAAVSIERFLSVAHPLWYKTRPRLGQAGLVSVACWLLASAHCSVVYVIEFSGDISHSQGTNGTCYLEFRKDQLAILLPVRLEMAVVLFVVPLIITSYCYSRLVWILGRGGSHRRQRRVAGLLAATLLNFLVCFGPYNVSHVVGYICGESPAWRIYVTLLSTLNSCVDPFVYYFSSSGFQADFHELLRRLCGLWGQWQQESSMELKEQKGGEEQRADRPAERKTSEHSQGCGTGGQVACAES
Briefly: biochemical. The following applies: for GTPγS pEC50: hFFA3, mean of ≥3 independent experiments ± standard error; for Emax: read-out: GTPγS Emax. As to the method:
(§1) The ligands were initially screened in a human FFA3-dependent [^35S]GTPγS binding assay as this assay reflects receptor-mediated activation of Gi/o proteins and is known to generally correlate well with ligand affinity.[30] Analogues of particular interest were tested further in a cAMP inhibition assay as this is an important downstream effect of Gi-activation. […] It is furthermore performed in whole cells, is more downstream, includes G protein signal amplification, and therefore better reflects a more natural ligand–receptor response.
Membranes were isolated from Flp-In T-REx HEK293 cells treated with 100 ng/mL doxycycline to induce receptor expression. Cells were washed with ice-cold phosphate-buffered saline and removed from dishes by scraping before being centrifuged for 5 min at 4 °C, 3000 rpm. Pellets were resuspended in TE buffer (75 mM Tris–HCl, 5 mM EDTA; pH 7.5) with the addition of a protease inhibitor mixture (Roche Applied Science, West Sussex, UK). This was then homogenized with a 5 mL hand-held homogenizer and subsequently centrifuged at 1500 rpm for 5 min at 4 °C, from which the supernatant was collected and further centrifuged at 50 000 rpm for 30 min at 4 °C. The resulting pellet was resuspended in TE buffer, and the protein content was measured using a BCA protein assay kit (Pierce, Fisher Scientific, Loughborough, UK).
Reactions were initiated with the addition of [^35S]GTPγS at 50 nCi per tube; reactions were terminated after 1 h of incubation at 25 °C by rapid filtration through GF/C glass filters using a 24-well Brandel cell harvester (Alpha Biotech, Glasgow, UK). Unbound radioligand was removed from filters by washing three times with ice-cold wash buffer (50 mM Tris–HCl, pH 7.4, and 10 mM MgCl2), and [^35S]GTPγS binding was determined by liquid scintillation spectrometry.

For data set [2], the target named is T1, hFFA3. The data set is described as follows: cell-based. The following applies: for Emax: HEK293, read-out: cAMP Emax; for cAMP pEC50: hFFA3, compound alone, mean of ≥3 independent experiments ± standard error. The protocol: as §1
HEK293 Flp-In T-Rex cells stably transfected with FFA3-eYFP receptors were incubated overnight with doxycycline to induce expression, then harvested, and cryopreserved. On the day of each experiment, cells were thawed and resuspended in stimulation buffer. Assays were carried out using a 384-well plate format with 3000 cells/well using the CisBio cAMP GS dynamic kit as per manufacturer’s protocol. Compounds were tested for the ability to inhibit 0.3 μM forskolin-induced cAMP production after co-incubation for 1 h. Reactions were measured using a PHERAstar FS plate reader (BMGLabtech, Aylesbury, UK).

A short description of data set [3]: Kinetic aqueous solubility in PBS pH 7.4. The format is physicochemical. The following applies: for solubility: pH 7.4, read-out: Aq. solub. The protocol: (§2) Solubility and log D7.4 measurements were performed in accordance to the previously published procedures.[35]
The nature of another data set: log D7.4 measurement. The format is physicochemical. The following applies: pH 7.4; read-out: logD7.4. As to the method: as §2
A short description of data set [4]: Stability toward mouse liver microsomes. The following applies: remaining after 40 min incubation with MLMs. As to the method:
The study was performed by Bienta (www.bienta.net). Mouse hepatic microsomes were isolated from pooled and perfused livers of male BALB/c mice (n = 50). Isolation was performed according to the standard protocol.[36]
Microsomal incubations were carried out in 96-well plates in 5 aliquots of 40 μL each (one for each time point). Liver microsomal incubation medium comprised PBS (100 mM, pH 7.4), MgCl2 (3.3 mM), NADPH (3 mM), glucose-6-phosphate (5.3 mM), and glucose-6-phosphate dehydrogenase (0.67 units/mL) with 0.42 mg of liver microsomal protein per ml. In the control reactions, the NADPH-cofactor system was substituted with PBS. […] Each reaction was performed in duplicates. Five time points over 40 min were analyzed. The reactions were stopped by adding 12 volumes of 90% acetonitrile–water to incubation aliquots, followed by protein sedimentation by centrifuging at 5500 rpm for 3 min. […]. Supernatants were analyzed using HPLC-MS/MS on an API 3000 PE instrument.

In the case of `CC1=C(C(=O)Nc2ccccc2Cl)C(CC(C)C)C2=C(CCCC2=O)N1` (centres unmarked) [Compound 20, N-(2-Chlorophenyl)-4-isobutyl-2-methyl-5-oxo-1,4,5,6,7,8-hexahydroquinoline-3-carboxamide], on hFFA3 [1], the “GTPγS pEC50” value was 5.41 ± 0.13 and the Emax was 105%. Also, at hFFA3 [2], the Emax is 94% and the “cAMP pEC50” value was found to be 6.15 ± 0.06.
On the same counts, the results for `CC1=C(C(=O)Nc2c(F)cccc2F)C(CC(C)C)C2=C(CCCC2=O)N1` (centres unmarked) [Compound 21, N-(2,6-Difluorophenyl)-4-isobutyl-2-methyl-5-oxo-1,4,5,6,7,8-hexahydroquinoline-3-carboxamide] are 4.67 ± 0.22, 89%, 104% and 4.98 ± 0.08.
On to `Cc1ccccc1NC(=O)c1c(C)nc2c(c1-c1ccco1)C(=O)CCC2` [Compound 24, 4-(Furan-2-yl)-2-methyl-5-oxo-N-(o-tolyl)-5,6,7,8-tetrahydroquinoline-3-carboxamide], for which the “PAM pEC50 (GTPγS assay)” value on hFFA3 [1] (GTPγS assay, with propionate) was “nr^c,d”. For the same compound, the “cAMP pEC50” value at hFFA3 [2] was “inactive and nr^c”.
With `CCCC1C(C(=O)Nc2ccccc2C)=C(C)NC2=C1C(=O)CCC2` (centres unmarked) [Compound 35, 2-Methyl-5-oxo-4-propyl-N-(o-tolyl)-1,4,5,6,7,8-hexahydroquinoline-3-carboxamide], at hFFA3 [2], the Emax was 101% and the “cAMP pEC50” value came out at 5.92 ± 0.01. The “PAM pEC50” value on hFFA3 [2] (cAMP assay in the presence of 1 μM propionate) amounted to 6.16 ± 0.10. Also, the solubility in data set [3] (phosphate buffered saline) was 199 µM (≈ 67.4 µg/mL). Further, the logD in “log D7.4 measurement” came out at 2.64. In data set [4], the “MLM (%) remaining” value came out at 23%.
As for `CC1=C(C(=O)Nc2cc(Cl)ccc2Cl)C(c2nccs2)C2=C(CCCC2=O)N1` (centres unmarked) [Compound 47, N-(2,5-Dichlorophenyl)-2-methyl-5-oxo-4-(thiazol-2-yl)-1,4,5,6,7,8-hexahydroquinoline-3-carboxamide], the solubility in data set [3] came to 1 µM (≈ 0.434 µg/mL); in data set [3] (phosphate buffered saline), 2 µM (≈ 0.869 µg/mL). Also, the logD at 24 h in the data set “log D7.4 measurement” was found to be 3.39. Moreover, the “MLM (%) remaining” value in data set [4] is reported as 2%.
For `CC1=C(C(=O)Nc2cc(Cl)ccc2Cl)C(c2cncs2)C2=C(CCCC2=O)N1` (centres unmarked) [Compound 48, N-(2,5-Dichlorophenyl)-2-methyl-5-oxo-4-(thiazol-5-yl)-1,4,5,6,7,8-hexahydroquinoline-3-carboxamide], at hFFA3 [2], the Emax is 97% and the “cAMP pEC50” value stood at 5.75 ± 0.03. The solubility in data set [3] (phosphate buffered saline) stood at 1 µM (≈ 0.434 µg/mL). In “log D7.4 measurement”, the logD at 24 h was found to be 3.23.
For `CC1=C(C(=O)Nc2cc(Cl)ccc2Cl)C(c2cscn2)C2=C(CCCC2=O)N1` (centres unmarked) [Compound 49, N-(2,5-Dichlorophenyl)-2-methyl-5-oxo-4-(thiazol-4-yl)-1,4,5,6,7,8-hexahydroquinoline-3-carboxamide] the same measures were 95%, 5.71 ± 0.08, less than 1 µM and 3.28.
Regarding `CC1=C(C(=O)Nc2cc(Cl)ccc2Cl)C(c2cocn2)C2=C(CCCC2=O)N1` (centres unmarked) [Compound 50, N-(2,5-Dichlorophenyl)-2-methyl-4-(oxazol-4-yl)-5-oxo-1,4,5,6,7,8-hexahydroquinoline-3-carboxamide], at hFFA3 [2], the Emax is 97% and the “cAMP pEC50” value is recorded as 5.78 ± 0.03. The “increase of solubility relative to 16” value in data set [3] (kinetic solubility) was greater than 10 fold. The solubility in data set [3] (phosphate buffered saline) stood at 62 µM (≈ 25.9 µg/mL). Besides, the logD at 24 h in “log D7.4 measurement” was 2.84.
On to `CC1=C(C(=O)Nc2cc(Cl)ccc2Cl)C(c2ncco2)C2=C(CCCC2=O)N1` (centres unmarked) [Compound 51, N-(2,5-Dichlorophenyl)-2-methyl-4-(oxazol-2-yl)-5-oxo-1,4,5,6,7,8-hexahydroquinoline-3-carboxamide], for which, at hFFA3 [2], the Emax is 95% and the “cAMP pEC50” value was determined as 6.72 ± 0.05. The solubility in data set [3] (phosphate buffered saline) turned out to be 1 µM (≈ 0.418 µg/mL). Further, in “log D7.4 measurement”, the logD at 24 h turned out to be 2.59. The “MLM (%) remaining” value in data set [4] turned out to be 12%.
On to `CCCC1C(C(=O)Nc2ccccc2Cl)=C(C)NC2=C1C(=O)CCC2` (centres unmarked) [Compound 58, N-(2-Chlorophenyl)-2-methyl-5-oxo-4-propyl-1,4,5,6,7,8-hexahydroquinoline-3-carboxamide], for which, on hFFA3 [2], the Emax was 105% and the “cAMP pEC50” value is 6.06 ± 0.05. Further, in data set [3] (kinetic solubility), the “increase of solubility compared to 57” value was 4–5 fold. The solubility in data set [3] (phosphate buffered saline) amounted to 169 µM (≈ 60.6 µg/mL). Moreover, the logD at 24 h in “log D7.4 measurement” is 3.22.
On the same counts, the results for `CCCC1C(C(=O)Nc2cccc(Cl)c2)=C(C)NC2=C1C(=O)CCC2` (centres unmarked) [Compound 59, N-(3-Chlorophenyl)-2-methyl-5-oxo-4-propyl-1,4,5,6,7,8-hexahydroquinoline-3-carboxamide] are 105%, 5.97 ± 0.05, 4–5 fold, 137 µM (≈ 49.2 µg/mL) and 3.77.
Turning to `CCCC1C(C(=O)Nc2cc(C)ccc2Cl)=C(C)NC2=C1C(=O)CCC2` (centres unmarked) [Compound 60, N-(2-Chloro-5-methylphenyl)-2-methyl-5-oxo-4-propyl-1,4,5,6,7,8-hexahydroquinoline-3-carboxamide], on hFFA3 [2], the Emax is 103% and the “cAMP pEC50” value is on record as 6.19 ± 0.10. For the same compound, the solubility in data set [3] (phosphate buffered saline) was determined as 145 µM (≈ 54.1 µg/mL). Besides, the logD at 24 h in “log D7.4 measurement” is 3.57.
As for `CCCC1C(C(=O)Nc2cc(OC)ccc2Cl)=C(C)NC2=C1C(=O)CCC2` (centres unmarked) [Compound 61, N-(2-Chloro-5-methoxyphenyl)-2-methyl-5-oxo-4-propyl-1,4,5,6,7,8-hexahydroquinoline-3-carboxamide], at hFFA3 [2], the Emax is 96% and the “cAMP pEC50” value amounted to 5.96 ± 0.08. Moreover, in data set [3] (phosphate buffered saline), the solubility was determined as 157 µM (≈ 61.1 µg/mL). Moreover, the logD at 24 h in “log D7.4 measurement” was 3.07.
In the case of `CC1=C(C(=O)Nc2cc(Cl)ccc2Cl)C(C2CC2)C2=C(CCCC2=O)N1` (centres unmarked) [Compound 62, 4-Cyclopropyl-N-(2,5-dichlorophenyl)-2-methyl-5-oxo-1,4,5,6,7,8-hexahydroquinoline-3-carboxamide], the solubility in data set [3] (phosphate buffered saline) was 5 µM (≈ 1.96 µg/mL). Besides, the logD at 24 h in the data set “log D7.4 measurement” was 3.73. Further, in data set [4], the “MLM (%) remaining” value was 1−2% and 1%.

In general, Emax refers to the size of the effect at its maximum, as opposed to the concentration needed.
